Results reported in publication PMC7920280, “The Multi-Targeting Ligand ST-2223 with Histamine H3 Receptor and Dopamine D2/D3 Receptor Antagonist Properties Mitigates Autism-Like Repetitive Behaviors and Brain Oxidative Stress in Mice” (International Journal of Molecular Sciences, 2021).

Tests used:
Type in all cases: in vivo
catalase (CAT) = assay: Catalase (CAT) activity in brain parts of treated BTBR mice; conditions: i.p., ST-2223 5 mg/kg, RAM 10 mg/kg, ARP 1 mg/kg, MEM 5 mg/kg, mean ± SEM; for CAT, Prefrontal Cortex: n = 3-6, BTBR vehicle 80.1 ± 14.9; for CAT, Striatum: n = 3-6, BTBR vehicle 104.6 ± 2.28; for CAT, Hippocampus: n = 3-6, BTBR vehicle 111.4 ± 4.8; for CAT, Cerebellum: n = 3-6, BTBR vehicle 130. 7 ± 3.3
Experimental: (§1) At the end of the behavioral assessments, the animals were sacrificed following previously published protocols. Animals were anesthetized with pentobarbital (40 mg/kg, body weight, i.p.), sacrificed, and perfused via intracardial infusion to wash out the blood, using 1× PBS (0.01 M phosphate buffer, 0.0027 M potassium chloride and 0.137 M sodium chloride) at pH 7.4. […] The brains were then quickly removed and placed on an ice plate. The cerebellum, hippocampus, prefrontal and striatum were excised from the brain and snap-frozen in liquid nitrogen for further use in biochemical assessments. On the day of the biochemical tests, the tissues were homogenized using radioimmunoprecipitation assay (RIPA) buffer (50 mM Tris HCl, pH 7.4, 140 mM NaCl, 1 mM EDTA, 0.5% Triton X-100 and 0.5% sodium deoxycholate) supplemented with protease and phosphatase inhibitors. Then, the homogenates were centrifuged at 14,000 rpm for 30 min (4 °C), and the supernatant was used for evaluation of lipid peroxidation, glutathione, and antioxidant enzymes using spectrophotometric measurements and enzyme-linked immunosorbent assays (ELISA)..
To assess the activity of antioxidant enzymes Superoxide dismutase (SOD) and Catalase (CAT), commercially available kits were used, following the manufacturer’s instructions, and as previously reported. Cayman assay kits (Cayman Chemicals Company, Ann Arbor, MI, USA) were used to assess antioxidant enzyme (superoxide dismutase (SOD) and catalase (CAT)) activities in experimental animals. Catalase assay: Twenty microliters of samples or standards and 30 μL of methanol was added to the assay buffer (100 μL) in 96-well plates. To this mixture, twenty microliter of hydrogen peroxide was added and incubated for 20 min at room temperature (RT) to initiate the reaction. Following incubation, 30 μL of potassium hydroxide was used to terminate the reaction, followed by subsequent addition of catalase purpald (30 μL) and catalase potassium periodate (10 μL). The plate was incubated for 5 min at room temperature in a shaker and the plate was read at 540 nm using a microplate reader. Catalase activity was expressed as nmol/min/mg protein. Superoxide dismutase assay: ten microliters of sample or standard was added in 96-well plates. Twenty microliters of xanthine oxidase were added to initiate the reaction. The reaction mixture was mixed for few seconds and incubated (covered) for 30 min at room temperature (RT). Absorbance was read at 450 nm using microplate reader. The activity of SOD was expressed as units/mg protein.

malondialdehyde (MDA) = assay: Malondialdehyde (MDA) assay in brain parts of treated BTBR mice; conditions: i.p., ST-2223 5 mg/kg, RAM 10 mg/kg, ARP 1 mg/kg, MEM 5 mg/kg, mean ± SEM; for MDA, Striatum: n = 3-6, BTBR vehicle 52.7 ± 3.4; for MDA, Hippocampus: n = 3-6, BTBR vehicle 53.8 ± 2.9; for MDA, Cerebellum: n = 3-6, BTBR vehicle 54.0 ± 6.4; for MDA, Prefrontal Cortex: n = 3-6, BTBR vehicle 58.3 ± 1.8
Experimental: as §1
This assay was performed to estimate the amount of lipid peroxidation in experimental animals using an MDA detection kit following the manufacturer’s instructions, as previously described in our laboratories. Briefly, 250 μL of sample or calibrator was incubated with thiobarbituric acid, followed by rigorous vortexing. After 1 h incubation at 60 °C, the mixture was centrifuged at 10,000× g for 2–3 min and the reaction mixture was transferred to a cuvette. Spectra were measured at 532 nm and the results are expressed as µM MDA/mg protein.

BTBR and B6 mice = assay: Open field test (OFT): locomotor activity and anxiety levels; conditions: i.p.; for total distance travelled (OFT) / time spent in the periphery (OFT), effect of treatment: B6 and BTBR mice; for total distance travelled (OFT) / time spent in the central arena (OFT) vs vehicle-treated B6 mice / time spent in center (OFT) vs vehicle-treated BTBR mice: ST-2223 2.5, 5 and 10 mg/kg, MEM 5 mg/kg, ARP 1 mg/kg; for time spent in the periphery (OFT), effect of treatment: ST-2223 2.5, 5 or 10 mg/kg, MEM, ARP
Experimental: The drugs tested included ST-2223 [N-(4-(4-(2-methoxyphenyl)piperazin-1-yl)butyl)-6-(3-(piperidin-1-yl)propoxy)-2-naphthamide] that was designed and synthesized in the Institute of Pharmaceutical and Medicinal Chemistry, Heinrich Heine University Düsseldorf, Germany, and in accordance with previously described methodologies (Supplementary Materials). Aripiprazole (ARP) (1 mg/kg, i.p.) and memantine (MEM, 5 mg/kg, i.p.), as reference drugs, were purchased from Sigma-Aldrich (St. Louis, MO, USA). The CNS-penetrant H3R agonist (R)-α-methylhistamine (RAM, 10 mg/kg, i.p.) was purchased from Sigma-Aldrich, St. Louis, MO, USA. T. Protease and the phosphatase inhibitor cocktail were procured from Thermo Scientific, USA. The assay kit for reduced glutathione (GSH) was obtained from Sigma-Aldrich (St. Louis, MO, USA). The lipid peroxidation assay kit for estimation of malondialdehyde (MDA) was purchased from North West Life Science (Vancouver, WA, USA). The assay kits for superoxide dismutase (SOD) and catalase (CAT) were purchased from Cayman Chemical (Ann Arbor, MI, USA). The drugs were prepared daily using 1% dimethyl sulfoxide (DMSO) in 0.9% saline, for intraperitoneal (i.p.) administration at a volume of 10 mL/kg of body weight. Vehicle treatment consisted of 1% DMSO in 0.9% normal saline. All drugs were i.p. administered 30 min before the behavioral test. The doses of these drugs were chosen based on previous reports. Neurobehavioral assessment was performed blindly with respect to experimental group and drug administration.
The open field test (OFT) systematically evaluates exploration behaviors executed in a novel open field (considered as a novel environment), as an independent control for the effects of the drugs on physical activity that could confound the interpretation of the results from the self-grooming, anxiety and spontaneous alternation. Mice were allowed to freely explore an open-field arena (45 × 45 × 30 cm), to assess general locomotor activity, and anxiety-related behaviors. The center arena was defined as the central 23 × 23 cm area. Mice were given 5 min to habituate in the center area of the arena before the recording started for the actual behavioral assessments. Recording lasted for 10 min using charge-coupled device (CCD) camera-assisted motion tracking apparatus and software (EthoVision 3.1, Noldus Information Technology, The Netherlands), and the total distance moved in the whole arena, time spent in the center and periphery were recorded. Test chambers were cleaned with 70% ethanol after each trial and were allowed to dry until ethanol evaporation and odor dissipation had occurred. When interpreting the results observed in this assessment, less time spent in the center was considered as an indicator for high levels of anxiety-like behaviors and total distance travelled signified the overall locomotor activity of tested animals.

| SMILES | CAT, Prefrontal Cortex (catalase (CAT)) [nmol/min/mg protein] | CAT, Striatum (catalase (CAT)) [nmol/min/mg protein] | CAT, Hippocampus (catalase (CAT)) [nmol/min/mg protein] | CAT, Cerebellum (catalase (CAT)) [nmol/min/mg protein] | MDA, Striatum (malondialdehyde (MDA)) [µM MDA/mg protein] | MDA, Hippocampus (malondialdehyde (MDA)) [µM MDA/mg protein] | MDA, Cerebellum (malondialdehyde (MDA)) [µM MDA/mg protein] | MDA, Prefrontal Cortex (malondialdehyde (MDA)) [µM MDA/mg protein] | total distance travelled (OFT) (BTBR and B6 mice) | time spent in the periphery (OFT), effect of treatment (BTBR and B6 mice) | time spent in the central arena (OFT) vs vehicle-treated B6 mice (BTBR and B6 mice) | time spent in center (OFT) vs vehicle-treated BTBR mice (BTBR and B6 mice) |
| --- | --- | --- | --- | --- | --- | --- | --- | --- | --- | --- | --- | --- |
| O=C1CCc2ccc(OCCCCN3CCN(c4cccc(Cl)c4Cl)CC3)cc2N1 [ARP, aripiprazole] | 96.2 ± 1.3 | 120.5 ± 10.1 | 118.3 ± 6.5 | 159.2 ± 5.1 | 41.2 ± 1.4 | 32.9 ± 4.1 | 36.8 ± 1.8 | 43.0 ± 2.5 | did not show any alteration | no significant effect | did not alter | significantly increased |
| CC12CC3CC(C)(C1)CC(N)(C3)C2 [MEM, memantine] | 94.1 ± 4.8 | 108.1 ± 3.4 | 114.3 ± 11.2 | 132.3 ± 4.5 | 32.6 ± 4.1 | 32.8 ± 3.4 | 26.7 ± 3.6 | 40.0 ± 5.7 | did not show any alteration | no significant effect | did not alter | failed to significantly mitigate |
| COc1ccccc1N1CCN(CCCCNC(=O)c2ccc3cc(OCCCN4CCCCC4)ccc3c2)CC1 [ST-2223, N-(4-(4-(2-methoxyphenyl)piperazin-1-yl)butyl)-6-(3-(piperidin-1-yl)propoxy)-2-naphthamide] | 116.8 ± 5.3 | 119.1 ± 3.7 | 173.0 ± 1.9 | 120.6 ± 8.8 | 34.5 ± 5.5 | 38.1 ± 3.1 | 35.2 ± 1.8 | 39.1 ± 3.2 | did not show any alteration | no significant effect | did not alter | significantly increased |
